US8034574B2, “Screening method for prokinetic agent” (Astellas Pharma Inc., priority 2006, dated 2011)
“Also recorded” adds a separate entry of the source.

How the values were obtained:
[1] = biological target: T1, human TRPA1 (polypeptide of SEQ ID NO:2) (Homo sapiens, UniProt O75762, K186N/R3C/R58T); experiment: Intracellular calcium by FLIPR in CHO-K1 cells expressing human TRPA1 (activator screening); format: cell-based; settings: CHO-K1 cells expressing human TRPA1; FLIPR, Fluo3-AM
T1 construct: expressed in transfected cells; host or cells: CHO-K1 cells, transient transfection of the pcDNA3.1(+) human TRPA1 vector
T1 sequence (O75762 whole entry R3C/R58T/K186N): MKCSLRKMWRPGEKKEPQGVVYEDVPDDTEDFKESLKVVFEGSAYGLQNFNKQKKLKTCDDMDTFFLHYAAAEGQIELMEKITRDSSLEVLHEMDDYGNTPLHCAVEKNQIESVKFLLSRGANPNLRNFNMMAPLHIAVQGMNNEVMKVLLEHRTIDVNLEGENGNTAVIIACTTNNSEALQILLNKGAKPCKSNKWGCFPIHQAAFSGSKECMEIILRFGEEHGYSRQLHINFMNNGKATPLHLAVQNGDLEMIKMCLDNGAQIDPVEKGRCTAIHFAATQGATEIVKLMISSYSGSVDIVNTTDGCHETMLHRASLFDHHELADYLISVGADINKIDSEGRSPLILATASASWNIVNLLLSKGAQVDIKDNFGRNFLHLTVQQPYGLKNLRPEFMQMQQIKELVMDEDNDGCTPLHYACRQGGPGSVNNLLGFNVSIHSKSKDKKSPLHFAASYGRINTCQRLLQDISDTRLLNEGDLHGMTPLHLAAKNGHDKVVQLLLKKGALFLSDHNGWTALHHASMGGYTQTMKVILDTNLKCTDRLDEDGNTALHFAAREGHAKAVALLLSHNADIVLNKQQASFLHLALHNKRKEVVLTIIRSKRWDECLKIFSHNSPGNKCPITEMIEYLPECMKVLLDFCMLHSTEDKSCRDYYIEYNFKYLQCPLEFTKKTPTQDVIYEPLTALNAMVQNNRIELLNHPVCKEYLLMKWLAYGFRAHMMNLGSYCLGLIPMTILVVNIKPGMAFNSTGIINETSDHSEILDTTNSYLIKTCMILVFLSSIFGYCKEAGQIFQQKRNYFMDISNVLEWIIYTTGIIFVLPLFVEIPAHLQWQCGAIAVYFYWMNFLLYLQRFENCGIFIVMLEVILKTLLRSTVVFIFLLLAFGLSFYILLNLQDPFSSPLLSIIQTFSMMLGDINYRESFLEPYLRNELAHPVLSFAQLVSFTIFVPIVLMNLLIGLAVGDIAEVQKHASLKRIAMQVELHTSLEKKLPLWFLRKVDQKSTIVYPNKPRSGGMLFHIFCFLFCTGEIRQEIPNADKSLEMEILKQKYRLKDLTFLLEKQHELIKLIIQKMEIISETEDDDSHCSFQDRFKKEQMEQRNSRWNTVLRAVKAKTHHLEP
Description: To detect the TRPA1 channel activity of a polypeptide consisting of the amino acid sequence shown by SEQ ID NO:2, the expression vector obtained in Example 1 above was transfected to animal cells, whereby the aforementioned protein was expressed.
Various test samples were added to CHO-K1 cells forced to is transiently express TRPA1 by the transfection operation of Example 2 above, and the resulting changes in intracellular calcium concentration were measured using FLIPR (Molecular Device).
To measure the changes in intracellular calcium concentration by FLIPR, the following pre-treatment was performed. First, an assay buffer for adding the fluorescent dye Fluo3-AM (DOJIN) to the cells, or for washing the cells just before performing the FLIPR assay, was prepared. To a solution prepared by adding 20 ml of 1M HEPES (pH 7.4) (Invitrogen) to 1000 ml of HBSS (Invitrogen) (hereinafter, HBSS/HEPES solution), 10 ml of a solution prepared by dissolving 710 mg of probenecid (Sigma) in 5 ml of 1N NaOH and then adding 5 ml of the HBSS/HEPES solution, was added and mixed, and this solution was used as the assay buffer. Next, 50 μg of Fluo3-AM was dissolved in 22 μl of DMSO (DOJIN), and an equal volume of 20% pluronic acid (Molecular Probes) was added and mixed, after which this mixture was added to 10.6 ml of the assay buffer supplemented with 105 μl of fetal bovine serum, whereby a fluorescent dye solution was prepared. […] After this pretreatment was performed, changes in intracellular calcium concentration after addition of the various test samples were measured with the FLIPR.
Compounds that activate a polypeptide consisting of the amino acid sequence shown by SEQ ID NO:2 (activators) were screened for. As an index of activation, calcium inflow in the cells was detected using a calcium-sensitive fluorescent reagent; specifically, the method described in Example 3 was used.

rat EC cells = experiment: Serotonin secretion from rat small intestine EC cells; format: cell-based; settings: 45 minutes culture
Description: A Wistar rat (male, 8-week-old) was decapitated and exsanguinated, after which it was dissected and laparotomized with scissors, and the small intestine was extirpated. The inside of the lumen of the extirpated small intestine was washed with physiological saline, and about 20 mL of Buffer A (70 mM NaCl, 5 mM KCl, 20 mM NaHCO3, 0.5 mM NaH2PO4, 50 mM HEPES (pH 7.2), 11 mM glucose, 3 mM EDTA, 0.5% BSA, 0.05 mM dithiothreitol, 1 mg/mL N-acetyl-L-cysteine) was injected, after which both ends were closed, and the small intestine was allowed to stand in 37° C. incubated HBSS for 10 minutes. Thereafter, the Buffer A in the lumen of the small intestine was discarded, about 20 mL of Buffer A was injected again, and the small intestine was allowed to stand in 37° C. incubated HBSS for 10 minutes. Again, the Buffer A in the lumen of the small intestine was discarded, fresh Buffer A was injected, and the small intestine was allowed to stand in 37° C. incubated HBSS for 20 minutes, after which the lumen content was recovered. […]
Serotonin secretion activity in EC cells prepared by the method described in Example 9-(3) was measured by a method modified from the method of Example 14 above. […]
The serotonin content in the supernatant was measured using a commercially available serotonin immunoassay kit (Beckman). […]

[2] = tested on: CHO-K1 cells not expressing the polypeptide shown by SEQ ID NO:2; experiment: Intracellular calcium by FLIPR in negative control CHO-K1 cells; format: cell-based; settings: CHO-K1 cells not expressing TRPA1
[3] = tested on: mouse ileum loop water secretion; experiment: Mouse gut water secretion (ileum loop); format: in vivo; settings: 6 hours; for water secretion from the gut: mouse ileum loop, 10, 100, 1,000 μg
Description: Mice (ddy, male, 35-42 g, SLC), fasted overnight, were anesthetized with pentobarbital (50 mg/kg i.p.) and laparotomized, and ileum tissue about 2 cm in the vicinity of the cecum was ligated with a thread at both ends to prepare an ileum loop. […] After the administration, the gut was returned to the original position, and the abdominal muscle and the skin were sutured. Six hours after the treatment, each mouse was killed by cervical dislocation, after which the ileum loop was extirpated, and the content was weighed.

[4] = tested on: dog digestive tract movement; experiment: Dog digestive tract movement by strain gauge force transducer method

C=CCN=C=S [allyl isothiocyanate]
change in intracellular calcium concentration [1]: responded specifically (elevation of intracellular calcium concentration)
serotonin secretion from rat EC cells (rat EC cells): significant serotonin secretion promoting activity was observed; also recorded: promoted the release of serotonin from the EC cells
elevation of fluorescence intensity in negative control cells [2]: none of these compounds produced an elevation of fluorescence intensity
water secretion accentuating action, 1,000 μg dose group ([3]; mouse ileum loop, 1,000 μg): significant water secretion accentuating action observed
water secretion from the gut [3]: dose-dependently accentuated water secretion from the gut
water secretion from the gut ([3]; listed as Allyl isothiocyanate): concentration-dependently accentuated water secretion compared to the vehicle control
induction of GMC ([4]; oral): induced GMC
time after administration to induction of colon GMC (Giant migrating contraction) ([4]; oral, 1, 10 mg/kg): ≤ 10 min
stomach movement ([4]; oral, just after administration): accentuated stomach movement just after administration
